Assay results taken from ChEMBL document CHEMBL3351638, “Discovery of 6-[5-(4-fluorophenyl)-3-methyl-pyrazol-4-yl]-benzoxazin-3-one derivatives as novel selective nonsteroidal mineralocorticoid receptor antagonists” (Bioorg Med Chem, 2014).

What was measured:
Rattus norvegicus [1] = experiment: Toxicity in DOCA-salt hypertensive Wistar rat model assessed as change in seminal vesicle weight at 100 mg/kg, po qd for 18 days measured 24 hrs post 7th and 14th last dose […]; assay type: organism-based; parameters: dose 100 mg/kg, route oral; settings: in vivo
Rattus norvegicus [2] = experiment: Toxicity in DOCA-salt hypertensive Wistar rat model assessed as change in heart rate at 100 mg/kg, po qd for 18 days measured 24 hrs post 7th and 14th last dose by tail-cuff method; assay type: organism-based; parameters: dose 100 mg/kg, route oral; settings: in vivo
Androgen receptor = target: T1, Androgen receptor (Homo sapiens, UniProt P10275); experiment: biochemical
T1 sequence (P10275 whole entry): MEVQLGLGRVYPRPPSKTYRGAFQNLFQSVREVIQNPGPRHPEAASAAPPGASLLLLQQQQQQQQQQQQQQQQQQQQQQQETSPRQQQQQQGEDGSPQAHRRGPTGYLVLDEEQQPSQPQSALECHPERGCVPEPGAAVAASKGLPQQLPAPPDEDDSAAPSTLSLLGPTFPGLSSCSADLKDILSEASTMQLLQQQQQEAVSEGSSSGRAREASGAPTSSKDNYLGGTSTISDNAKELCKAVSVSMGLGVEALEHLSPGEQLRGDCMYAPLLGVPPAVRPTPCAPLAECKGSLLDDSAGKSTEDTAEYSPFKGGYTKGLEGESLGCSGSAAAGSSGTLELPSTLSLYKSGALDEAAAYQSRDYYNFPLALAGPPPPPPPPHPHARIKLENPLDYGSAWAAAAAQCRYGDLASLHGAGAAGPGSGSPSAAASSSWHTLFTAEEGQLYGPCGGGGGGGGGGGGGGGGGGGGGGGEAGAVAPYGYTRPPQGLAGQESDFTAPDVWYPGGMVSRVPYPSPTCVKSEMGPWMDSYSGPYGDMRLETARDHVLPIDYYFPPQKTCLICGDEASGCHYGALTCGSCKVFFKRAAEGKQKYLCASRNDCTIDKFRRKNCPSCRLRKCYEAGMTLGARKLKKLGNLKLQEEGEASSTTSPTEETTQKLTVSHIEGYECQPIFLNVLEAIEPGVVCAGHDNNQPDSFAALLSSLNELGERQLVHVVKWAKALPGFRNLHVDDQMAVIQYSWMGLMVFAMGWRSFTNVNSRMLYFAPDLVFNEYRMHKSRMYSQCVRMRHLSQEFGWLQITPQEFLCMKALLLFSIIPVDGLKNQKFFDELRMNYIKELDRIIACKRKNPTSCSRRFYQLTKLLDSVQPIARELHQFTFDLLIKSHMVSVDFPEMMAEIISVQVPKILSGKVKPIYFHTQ
Description: Displacement of [3H]testosterone from androgen receptor (unknown origin) expressed in 293 cells after 16 hrs by scintillation counting

[3] = Lipophilicity, log D of the compound at pH 7.4 by HPLC analysis; assay type: physicochemical; settings: buffer
[4] = Metabolic stability in rat hepatic microsomes at 1 umol/L pre-incubated fro 5 mins at 37 degC before addition of NADPH-generating system by UV detection based HPLC method; assay type: ADME; settings: liver microsomes, read-out: CLH
[5] = target: T2, Mineralocorticoid receptor (Homo sapiens, UniProt P08235); experiment: biochemical
T2 sequence (P08235 whole entry): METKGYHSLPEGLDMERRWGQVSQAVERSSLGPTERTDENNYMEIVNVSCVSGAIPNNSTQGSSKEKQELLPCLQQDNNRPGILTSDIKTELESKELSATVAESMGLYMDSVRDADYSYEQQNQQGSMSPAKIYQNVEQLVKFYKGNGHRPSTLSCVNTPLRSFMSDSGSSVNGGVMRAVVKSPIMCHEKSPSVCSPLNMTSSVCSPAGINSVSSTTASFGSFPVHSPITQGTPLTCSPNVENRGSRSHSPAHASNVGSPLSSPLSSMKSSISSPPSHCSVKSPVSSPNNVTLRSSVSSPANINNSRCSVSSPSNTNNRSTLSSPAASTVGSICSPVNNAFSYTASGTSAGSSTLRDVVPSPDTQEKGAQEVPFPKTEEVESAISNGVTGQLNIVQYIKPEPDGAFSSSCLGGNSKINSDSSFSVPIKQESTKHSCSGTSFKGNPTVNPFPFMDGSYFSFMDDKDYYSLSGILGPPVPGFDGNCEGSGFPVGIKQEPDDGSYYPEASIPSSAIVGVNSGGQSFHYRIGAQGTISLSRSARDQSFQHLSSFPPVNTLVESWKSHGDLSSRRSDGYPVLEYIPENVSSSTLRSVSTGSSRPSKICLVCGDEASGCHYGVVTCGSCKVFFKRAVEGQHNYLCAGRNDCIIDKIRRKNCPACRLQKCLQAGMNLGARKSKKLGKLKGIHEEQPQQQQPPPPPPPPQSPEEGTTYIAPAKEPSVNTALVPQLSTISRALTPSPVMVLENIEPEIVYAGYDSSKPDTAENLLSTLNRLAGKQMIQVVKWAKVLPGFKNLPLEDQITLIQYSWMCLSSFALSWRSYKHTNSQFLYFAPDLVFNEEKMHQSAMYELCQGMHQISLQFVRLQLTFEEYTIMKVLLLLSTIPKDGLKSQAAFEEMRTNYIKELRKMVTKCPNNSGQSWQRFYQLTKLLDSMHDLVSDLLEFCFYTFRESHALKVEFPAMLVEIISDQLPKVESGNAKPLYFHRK
Description: Displacement of [3H]aldosterone from human mineralocorticoid receptor expressed in 293 cells after 16 hrs by scintillation counting

Glucocorticoid receptor = Glucocorticoid receptor (Homo sapiens, UniProt P04150); experiment: biochemical
Glucocorticoid receptor, sequence (P04150 whole entry, looked up): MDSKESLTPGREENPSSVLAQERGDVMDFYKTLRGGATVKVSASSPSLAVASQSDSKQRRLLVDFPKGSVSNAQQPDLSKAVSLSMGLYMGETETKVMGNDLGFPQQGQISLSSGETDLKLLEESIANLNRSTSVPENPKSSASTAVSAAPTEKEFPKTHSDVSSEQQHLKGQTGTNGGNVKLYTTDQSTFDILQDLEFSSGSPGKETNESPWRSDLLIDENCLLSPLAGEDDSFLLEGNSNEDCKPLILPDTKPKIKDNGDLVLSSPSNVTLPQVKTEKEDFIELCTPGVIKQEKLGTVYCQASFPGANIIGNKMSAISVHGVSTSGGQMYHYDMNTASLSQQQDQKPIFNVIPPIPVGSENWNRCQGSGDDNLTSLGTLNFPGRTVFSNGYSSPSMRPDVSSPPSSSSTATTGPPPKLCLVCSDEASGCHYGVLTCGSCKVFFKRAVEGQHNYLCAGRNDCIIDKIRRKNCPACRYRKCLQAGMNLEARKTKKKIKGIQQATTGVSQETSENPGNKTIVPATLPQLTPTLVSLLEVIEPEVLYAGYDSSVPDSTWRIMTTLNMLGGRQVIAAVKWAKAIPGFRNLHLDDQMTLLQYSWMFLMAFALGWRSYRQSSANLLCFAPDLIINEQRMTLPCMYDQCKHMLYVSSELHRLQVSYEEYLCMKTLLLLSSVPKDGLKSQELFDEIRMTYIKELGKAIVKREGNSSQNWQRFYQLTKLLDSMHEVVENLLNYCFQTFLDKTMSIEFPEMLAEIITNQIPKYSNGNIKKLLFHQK
Description: Displacement of [3H]-Dexamethasone from glucocorticoid receptor (unknown origin) expressed in 293 cells after 16 hrs by scintillation counting

Progesterone receptor = target: T3, Progesterone receptor (Homo sapiens, UniProt P06401); experiment: Displacement of [[3H]-Progesterone from progesterone receptor (unknown origin) expressed in 293 cells after 16 hrs by scintillation counting; assay type: cell-based
T3 sequence (P06401 whole entry): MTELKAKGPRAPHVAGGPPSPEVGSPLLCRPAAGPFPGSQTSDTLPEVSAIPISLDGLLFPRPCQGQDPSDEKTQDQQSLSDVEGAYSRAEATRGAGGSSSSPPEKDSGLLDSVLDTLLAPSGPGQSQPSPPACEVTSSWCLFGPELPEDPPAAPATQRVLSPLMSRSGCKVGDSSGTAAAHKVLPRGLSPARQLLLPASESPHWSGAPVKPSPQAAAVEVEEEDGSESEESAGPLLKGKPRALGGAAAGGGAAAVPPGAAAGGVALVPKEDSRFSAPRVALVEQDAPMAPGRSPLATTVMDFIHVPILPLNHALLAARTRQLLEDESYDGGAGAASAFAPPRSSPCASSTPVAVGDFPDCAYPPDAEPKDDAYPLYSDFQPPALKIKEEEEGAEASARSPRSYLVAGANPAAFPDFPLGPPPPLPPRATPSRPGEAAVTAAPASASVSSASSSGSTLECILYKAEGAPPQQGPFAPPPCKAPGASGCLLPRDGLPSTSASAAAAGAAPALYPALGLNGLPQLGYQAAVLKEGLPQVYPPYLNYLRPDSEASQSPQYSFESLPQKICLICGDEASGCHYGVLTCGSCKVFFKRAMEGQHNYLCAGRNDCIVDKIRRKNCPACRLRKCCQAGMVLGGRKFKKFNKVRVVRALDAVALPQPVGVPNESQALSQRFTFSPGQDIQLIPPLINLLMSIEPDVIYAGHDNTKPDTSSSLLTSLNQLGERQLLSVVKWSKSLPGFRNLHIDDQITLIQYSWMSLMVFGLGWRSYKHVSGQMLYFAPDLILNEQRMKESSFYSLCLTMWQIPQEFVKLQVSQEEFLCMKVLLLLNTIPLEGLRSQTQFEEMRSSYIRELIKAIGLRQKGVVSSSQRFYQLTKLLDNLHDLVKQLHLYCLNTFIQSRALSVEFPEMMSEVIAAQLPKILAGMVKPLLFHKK

[6] = target: T2, Mineralocorticoid receptor
Description: Antagonist activity at human mineralocorticoid receptor expressed in COS1 cells after 1 day by luciferase reporter gene assay

[7] = Mean residence time in Sprague-Dawley rat at 3 mg/kg, po; assay type: ADME, organism-based; parameters: dose 3 mg/kg, route oral; settings: in vivo
[8] = Oral bioavailability in Sprague-Dawley rat at 3 mg/kg; assay type: ADME, organism-based; settings: in vivo
[9] = Clearance in Sprague-Dawley rat at 1 mg/kg, iv; assay type: ADME, organism-based; parameters: dose 1 mg/kg, route intravenous; settings: in vivo
[10] = Volume of distribution at steady state in Sprague-Dawley rat at 1 mg/kg, iv; assay type: ADME, organism-based; parameters: dose 1 mg/kg, route intravenous; settings: in vivo, read-out: Vdss
[11] = AUC (0 to 24 hrs) in Sprague-Dawley rat at 3 mg/kg, po; assay type: ADME, organism-based; parameters: time < 24 hr, dose 3 mg/kg, route oral; settings: plasma

Compound | IC50 (Androgen receptor) | logD [3] | microsomal CLint at 1 µM [4] | IC50 [5] | IC50 (Glucocorticoid receptor) | IC50 (Progesterone receptor) | IC50 [6] | MRT [7] | bioavailability [8] | clearance [9] | Vd [10] | AUC(0-t) at 24 h [11] | Activity (Rattus norvegicus [1]) | Activity (Rattus norvegicus [2])
CC(=O)S[C@@H]1CC2=CC(=O)CC[C@]2(C)[C@H]2CC[C@@]3(C)[C@@H](CC[C@@]34CCC(=O)O4)[C@H]12 [SPIRONOLACTONE] |  |  |  |  |  |  |  |  |  |  |  |  | Toxic | Non-toxic
Cc1nn(Cc2cccnc2)c(-c2ccc(F)cc2)c1-c1ccc2c(c1)NC(=O)CO2 | > 10000 nM | 2.22 | > 200 µL/min/mg | 36 nM | 1700 nM | > 10000 nM | 36 nM |  |  |  |  |  |  | 
Cc1nn(CC(F)(F)CO)c(-c2ccc(F)cc2)c1-c1ccc2c(c1)NC(=O)CO2 | > 10000 nM | 2.05 | > 42 µL/min/mg | 51 nM | 2400 nM | > 10000 nM | 71 nM | 3.77 h | 21.4% | 16.5 mL/min/kg | 1.36 L/kg | 662 ng·h/mL | Non-toxic | Non-toxic
Cc1nn(CCC#N)c(-c2ccc(F)cc2)c1-c1ccc2c(c1)NC(=O)CO2 | > 10000 nM | 1.89 |  | 530 nM | 4600 nM | 5700 nM | 490 nM |  |  |  |  |  |  | 

More lines, main results first:

IC50 (Androgen receptor) | logD [3] | microsomal CLint at 1 µM [4] | IC50 [5] | IC50 (Glucocorticoid receptor) | IC50 (Progesterone receptor) | IC50 [6] | MRT [7] | bioavailability [8] | clearance [9] | Vd [10] | AUC(0-t) at 24 h [11] | Compound | Activity (Rattus norvegicus [1]) | Activity (Rattus norvegicus [2])
> 10000 nM | 2.34 |  | 95 nM | 2500 nM | > 10000 nM | 180 nM |  |  |  |  |  | Cc1nn(CCC(F)(F)CO)c(-c2ccc(F)cc2)c1-c1ccc2c(c1)NC(=O)CO2 |  | 
> 10000 nM | 2.11 |  | 38 nM | 1300 nM | > 10000 nM | 540 nM |  |  |  |  |  | Cc1nn(CC(F)(F)CCO)c(-c2ccc(F)cc2)c1-c1ccc2c(c1)NC(=O)CO2 |  | 
